Calls of active or inactive are those of the source. The rule behind the calls is not given here.
Experiments:
Danio rerio [1] = experiment: Cardioprotective activity against doxorubicin-induced Zebrafish cardiomyopathy model assessed as survival rate at 15 uM fertilized for 24 hrs followed by compound administration for 72 hrs and measured at 96 hrs post fertilization by inverted fluorescence microscopic analysis; format: functional
Danio rerio [2] = experiment: Cardioprotective activity against doxorubicin-induced Zebrafish cardiomyopathy model at 5 to 15 uM fertilized for 24 hrs followed by compound administration for 72 hrs and measured at 96 hrs post fertilization by inverted fluorescence microscopic analysis; format: functional, organism-based; conditions: dose 5-15 µM
Danio rerio [3] = organism: Danio rerio; experiment: Cardioprotective activity against doxorubicin-induced Tg(cmlc2: GFP) Zebrafish assessed as reduction in cTnT mRNA level measured at 72 hrs post fertilization by qPCR analysis; format: functional, organism-based; conditions: dose <= 5.0 µM
[4] = Toxicity in zebrafish embryos assessed as survival at upto 40 uM fertilized for 24 hrs followed by compound administration for 72 hrs and measured at 96 hrs post fertilization; design: species or system Danio rerio; conditions: in vivo
Danio rerio [5] = organism: Danio rerio; experiment: Cardioprotective activity against doxorubicin-induced Tg(cmlc2: GFP) Zebrafish assessed as reduction in Anp mRNA level measured at 72 hrs post fertilization by qPCR analysis; format: functional, organism-based; conditions: dose <= 5.0 µM
Danio rerio [6] = experiment: Cardioprotective activity against doxorubicin-induced Tg(cmlc2: GFP) Zebrafish assessed as […] at 5 uM measured at 72 hrs post fertilization; format: functional, organism-based
Danio rerio [7] = organism: Danio rerio; experiment: Cardioprotective activity against doxorubicin-induced Tg(cmlc2: GFP) Zebrafish assessed as reduction in Bnp mRNA level measured at 72 hrs post fertilization by qPCR analysis; format: functional, organism-based
Danio rerio [8] = experiment: Cardioprotective activity against doxorubicin-induced Zebrafish cardiomyopathy model assessed as survival rate at 5 uM fertilized for 24 hrs followed by compound administration for 72 hrs and measured at 96 hrs post fertilization by inverted fluorescence microscopic analysis; format: functional
Danio rerio [9] = organism: Danio rerio; experiment: Cardioprotective activity against doxorubicin-induced Tg(cmlc2: GFP) Zebrafish assessed as restoration of normal heart structure at 5 uM measured at 72 hrs post fertilization; format: functional, organism-based
Mus musculus [10] = organism: Mus musculus; experiment: Antioxidant activity against doxorubicin-induced C57BL/6 mouse assessed as decrease in MDA level in heart; format: functional, organism-based
H9c2 [11] = experiment: Induction of ROS accumulation in doxorubicin-induced rat H9c2 cells transfected with SIRT3 siRNA assessed as reduction in fluorescence intensity at 10 uM incubated for 30 min in presence of 3-TYP by DCFH-DA and PI staining based microscopic analysis; format: functional, cell-based
Danio rerio [12] = organism: Danio rerio; experiment: Cardioprotective activity against doxorubicin-induced Tg(cmlc2: GFP) Zebrafish at 15 uM measured at 72 hrs post fertilization; format: functional, organism-based
H9c2 [13] = experiment: Antioxidant activity against doxorubicin-induced rat H9c2 cells assessed as increase in GSH level upto 10 uM in presence of 3-TYP; format: functional, cell-based
H9c2 [14] = experiment: Upregulation of OPA1 expression in rat H9c2 cells upto 10 uM by Western blot analysis; format: functional, cell-based
H9c2 [15] = experiment: Induction of ROS accumulation in doxorubicin-induced rat H9c2 cells assessed as reduction in fluorescence intensity upto 10 uM incubated for 30 min in presence of 3-TYP by DCFH-DA and PI staining based microscopic analysis; format: functional, cell-based
H9c2 [16] = experiment: Cardioprotective activity against doxorubicin-induced rat H9c2 cells assessed as downregulation of Anp mRNA level upto 10 uM qPCR analysis; format: functional, cell-based
Mus musculus [17] = experiment: Cardioprotective activity against doxorubicin-induced C57BL/6 mouse cardiomyopathy model assessed as reduction in Bnp mRNA level at 2.5 mg/kg, ip administered for 7 days; format: functional, organism-based; conditions: time 7.0 day
Mus musculus [18] = organism: Mus musculus; experiment: Antioxidant activity against doxorubicin-induced C57BL/6 mouse assessed as increase in GSH level in heart; format: functional, organism-based
Mus musculus [19] = experiment: Cardioprotective activity against doxorubicin-induced C57BL/6 mouse cardiomyopathy model assessed as collagen fraction volume at 2.5 mg/kg, ip administered for 7 days by Sirius staining based analysis; format: functional, organism-based; conditions: time 7.0 day
H9c2 [20] = experiment: Antioxidant activity against doxorubicin-induced rat H9c2 cells assessed as increase in SOD level upto 10 uM; format: functional, cell-based
H9c2 [21] = experiment: Antioxidant activity against doxorubicin-induced rat H9c2 cells assessed as increase in GSH level upto 10 uM; format: functional, cell-based
H9c2 [22] = experiment: Cardioprotective activity against doxorubicin-induced rat H9c2 cells assessed as reduction in LDH release upto 10 uM; format: functional, cell-based
Mus musculus [23] = experiment: Cardioprotective activity against doxorubicin-induced C57BL/6 mouse cardiomyopathy model assessed as reduction in cTnT mRNA level at 2.5 mg/kg, ip administered for 7 days; format: functional, organism-based; conditions: time 7.0 day
Mus musculus [24] = experiment: Cardioprotective activity against doxorubicin-induced C57BL/6 mouse cardiomyopathy model assessed as upregulation of SIRT3 level at 2.5 mg/kg, ip administered for 7 days by Western blot analysis; format: functional, organism-based; conditions: time 7.0 day
H9c2 [25] = experiment: Upregulation of OPA1 expression in doxorubicin-induced rat H9c2 cells transfected with SIRT3 siRNA at 10 uM by Western blot analysis; format: functional, cell-based
H9c2 [26] = experiment: Upregulation of SIRT3 expression in rat H9c2 cells upto 10 uM by Western blot analysis; format: functional, cell-based
H9c2 [27] = experiment: Induction of ROS accumulation in doxorubicin-induced rat H9c2 cells assessed as reduction in fluorescence intensity incubated for 30 min by DCFH-DA and PI staining based microscopic analysis; format: functional, cell-based; conditions: dose 1-10 µM
H9c2 [28] = experiment: Cardioprotective activity against doxorubicin-induced rat H9c2 cells assessed as increase in cell viability incubated for 24 hrs by CCK-8 assay; format: functional, cell-based; conditions: dose 1-10 µM
H9c2 [29] = experiment: Induction of mitochondrial membrane potential loss in doxorubicin-induced rat H9c2 cells transfected with SIRT3 siRNA incubated for 30 mins in prsence of 3-TYP by JC-1 staining based fluorescence microscopic analysis; format: cell-based
H9c2 [30] = experiment: Cardioprotective activity against doxorubicin-induced rat H9c2 cells assessed as downregulation of cTnT mRNA level upto 10 uM qPCR analysis; format: functional, cell-based
H9c2 [31] = experiment: Antioxidant activity against doxorubicin-induced rat H9c2 cells assessed as decrease in MDA level upto 10 uM in presence of 3-TYP; format: functional, cell-based
H9c2 [32] = experiment: Upregulation of SOD2 expression in doxorubicin-induced rat H9c2 cells transfected with SIRT3 siRNA at 10 uM by Western blot analysis; format: functional, cell-based
H9c2 [33] = experiment: Cardioprotective activity against doxorubicin-induced rat H9c2 cells assessed as increase in cell viability at 10 uM incubated for 24 hrs by CCK-8 assay; format: functional, cell-based
H9c2 [34] = experiment: Induction of mitochondrial membrane potential loss in doxorubicin-induced rat H9c2 cells incubated for 30 mins by JC-1 staining based fluorescence microscopic analysis; format: cell-based; conditions: dose 1-10 µM
H9c2 [35] = experiment: Antioxidant activity against doxorubicin-induced rat H9c2 cells assessed as decrease in MDA level upto 10 uM; format: functional, cell-based
H9c2 [36] = experiment: Antioxidant activity against doxorubicin-induced rat H9c2 cells assessed as increase in SOD level upto 10 uM in presence of 3-TYP; format: functional, cell-based
H9c2 [37] = experiment: Cardioprotective activity against doxorubicin-induced rat H9c2 cells assessed as increase in cell viability at 10 uM incubated for 24 hrs in presence of EX527 by CCK-8 assay; format: functional, cell-based
H9c2 [38] = experiment: Cardioprotective activity against doxorubicin-induced rat H9c2 cells assessed as reduction in LDH release upto 10 uM in presence of 3-TYP; format: functional, cell-based
Danio rerio [39] = organism: Danio rerio; experiment: Cardioprotective activity against doxorubicin-induced Tg(cmlc2: GFP) Zebrafish at 5 uM measured at 72 hrs post fertilization; format: functional, organism-based
Mus musculus [40] = experiment: Cardioprotective activity against doxorubicin-induced C57BL/6 mouse cardiomyopathy model assessed as upregulation of […] level at 2.5 mg/kg, ip administered for 7 days by Western blot analysis; format: functional, organism-based; conditions: time 7.0 day
H9c2 [41] = experiment: Upregulation of SOD2 expression in rat H9c2 cells upto 10 uM by Western blot analysis; format: functional, cell-based
Mus musculus [42] = experiment: Cardioprotective activity against doxorubicin-induced C57BL/6 mouse cardiomyopathy model assessed as upregulation of SOD2 level at 2.5 mg/kg, ip administered for 7 days by Western blot analysis; format: functional, organism-based; conditions: time 7.0 day
H9c2 [43] = experiment: Cardioprotective activity against doxorubicin-induced rat H9c2 cells assessed as downregulation of Bnp mRNA level upto 10 uM qPCR analysis; format: functional, cell-based
Mus musculus [44] = experiment: Cardioprotective activity against doxorubicin-induced C57BL/6 mouse cardiomyopathy model assessed as collagen fraction volume at 2.5 mg/kg, ip administered for 7 days by masson staining based analysis; format: functional, organism-based; conditions: time 7.0 day
Mus musculus [45] = experiment: Cardioprotective activity against doxorubicin-induced C57BL/6 mouse cardiomyopathy model assessed as reduction in Anp mRNA level at 2.5 mg/kg, ip administered for 7 days; format: functional, organism-based; conditions: time 7.0 day
H9c2 [46] = experiment: Induction of mitochondrial membrane potential loss in doxorubicin-induced rat H9c2 cells incubated for 30 mins in prsence of 3-TYP by JC-1 staining based fluorescence microscopic analysis; format: cell-based
H9c2 [47] = experiment: Cardioprotective activity against doxorubicin-induced rat H9c2 cells assessed as increase in cell viability at 10 uM incubated for 24 hrs in presence of 3-TYP by CCK-8 assay; format: functional, cell-based
Danio rerio [48] = organism: Danio rerio; experiment: Cardioprotective activity against doxorubicin-induced Tg(cmlc2: GFP) Zebrafish assessed as restoration of normal heart structure at 1 uM measured at 72 hrs post fertilization; format: functional, organism-based
Danio rerio [49] = experiment: Cardioprotective activity against doxorubicin-induced Zebrafish cardiomyopathy model assessed as survival rate at 1 uM fertilized for 24 hrs followed by compound administration for 72 hrs and measured at 96 hrs post fertilization by inverted fluorescence microscopic analysis; format: functional
Danio rerio [50] = experiment: Cardioprotective activity against doxorubicin-induced Tg(cmlc2: GFP) Zebrafish assessed as […] at 1 uM measured at 72 hrs post fertilization; format: functional, organism-based

Structure (SMILES): C[C@@]12CC[C@@H]3[C@@](CC[C@H]4[C@@]3(C)CCC[C@@]4(C)C(=O)N3CCN(C(=O)/C=C/C(=O)O)CC3)(CC1=O)C2
- survival at 15 µM (Danio rerio [1]): 50%
- Activity (Danio rerio [2]): Active

Structure (SMILES): C[C@@]12CC[C@@H]3[C@@](CC[C@H]4[C@@]3(C)CCC[C@@]4(C)C(=O)N3CCN(C(=O)C4=C(C(=O)O)CCCC4)CC3)(CC1=O)C2
- Activity (Danio rerio [3]): Dose-Dependent Effect
- Activity [4]: Non-Toxic
- Activity (Danio rerio [5]): Dose-Dependent Effect
- Activity (Danio rerio [6]): Active
- Activity (Danio rerio [7]): Dose-Dependent Effect
- Activity (Danio rerio [8]): 85%
- Activity (Danio rerio [9]): Active

Structure (SMILES): C[C@@]12CC[C@@H]3[C@@](CC[C@H]4[C@@]3(C)CCC[C@@]4(C)C(=O)N3CCN(C(=O)c4ccccc4C(=O)O)CC3)(CC1=O)C2
- Activity (Danio rerio [3]): Dose-Dependent Effect
- Activity (Mus musculus [10]): Active
- Activity (H9c2 [11]): Active
- Activity (Danio rerio [12]): Active
- Activity (H9c2 [13]): Active
- Activity (H9c2 [14]): Active
- Activity (H9c2 [15]): Active
- Activity (H9c2 [16]): Active
- Activity (Mus musculus [17]): Active
- Activity (Mus musculus [18]): Active
- Activity (Danio rerio [5]): Dose-Dependent Effect
- Activity (Mus musculus [19]): Active
- Activity (H9c2 [20]): Active
- Activity (H9c2 [21]): Active
- Activity (H9c2 [22]): Active
- Activity (Mus musculus [23]): Active
- Activity (Mus musculus [24]): Active
- Activity (H9c2 [25]): Active
- Activity (H9c2 [26]): Active
- Activity (H9c2 [27]): Dose-Dependent Effect
- Activity (H9c2 [28]): Dose-Dependent Effect
- Activity (Danio rerio [6]): Active
- Activity (H9c2 [29]): Active
- Activity (H9c2 [30]): Active
- Activity (H9c2 [31]): Active
- Activity (H9c2 [32]): Active
- Activity (H9c2 [33]): Active
- Activity (Danio rerio [7]): Dose-Dependent Effect
- Activity (H9c2 [34]): Dose-Dependent Effect
- Activity (H9c2 [35]): Active
- Activity (H9c2 [36]): Active
- Activity (H9c2 [37]): inactive
- Activity (H9c2 [38]): Active
- Activity (Danio rerio [39]): Active
- Activity (Mus musculus [40]): Active
- Activity (H9c2 [41]): Active
- Activity (Mus musculus [42]): Active
- Activity (H9c2 [43]): Active
- Activity (Mus musculus [44]): Active
- Activity (Mus musculus [45]): Active
- Activity (H9c2 [46]): Active
- Activity (Danio rerio [9]): Active
- Activity (H9c2 [47]): inactive

Structure (SMILES): CC1CCCC(C(=O)O)C1C(=O)N1CCN(C(=O)[C@]2(C)CCC[C@@]3(C)[C@@H]4CC[C@@]5(C)C[C@]4(CC[C@@H]32)CC5=O)CC1 (some centres not stated)
- Activity (Danio rerio [2]): Active

Structure (SMILES): CC(C)(C)OC(=O)N1CCN(C(=O)[C@]2(C)CCC[C@@]3(C)[C@@H]4CC[C@@]5(C)C[C@]4(CC[C@@H]32)CC5=O)CC1
- Activity (Danio rerio [2]): Active

Structure (SMILES): CC(CC(=O)O)C(=O)N1CCN(C(=O)[C@]2(C)CCC[C@@]3(C)[C@@H]4CC[C@@]5(C)C[C@]4(CC[C@@H]32)CC5=O)CC1 (some centres not stated)
- Activity (Danio rerio [2]): Active

Structure (SMILES): Cc1ccc(C(=O)O)c(C(=O)N2CCN(C(=O)[C@]3(C)CCC[C@@]4(C)[C@@H]5CC[C@@]6(C)C[C@]5(CC[C@@H]43)CC6=O)CC2)c1
- Activity (Danio rerio [3]): Dose-Dependent Effect
- Activity [4]: Non-Toxic
- Activity (Danio rerio [5]): Dose-Dependent Effect
- Activity (Danio rerio [48]): Active
- Activity (Danio rerio [7]): Dose-Dependent Effect
- survival at 1 µM (Danio rerio [49]): 90%
- Activity (Danio rerio [50]): Active

Source: ChEMBL document CHEMBL5543130, “Design, Synthesis, and In Vivo Evaluation of Isosteviol Derivatives as New SIRT3 Activators with Highly Potent Cardioprotective Effects” (J Med Chem, 2024)
